Experimental data published in PubChem BioAssay AID248 (DTP/NCI, 2004).
Values joined by “and” are separate entries in the source; they are usually repeats but may differ in a detail not shown here. Equal entries are not always repeated. Inconclusive results and toxic doses are left out. No stated cut-off is given here; in the data, active means T/C of 150% or more; inactive means T/C below 125%.

Tested on: L1210 leukemia ip in BDF1 mice, survival T/C
Test: NCI In Vivo Anticancer Drug Screen. Data for tumor model L1210 Leukemia (intraperitoneal) in B6D2F1 (BDF1) mice
Settings: endpoint: mean survival time, higher = longer survival
In short: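 Survival endpoint. Drug-treated group vs vehicle group, expressed as T divided by C. Tumor passaged by transplantation.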

[1] = dose: 50.0 mg/kg/injection, schedule: Q01DX009 (ip), vehicle: saline with Tween-80
[2] = dose: 100.0 mg/kg/injection, schedule: Q04DX003 (ip), vehicle: saline with Tween-80
[3] = dose: 200.0 mg/kg/injection, schedule: Q04DX003 (ip), vehicle: saline with Tween-80
[4] = dose: 100.0 mg/kg/injection, schedule: Q01DX009 (ip), vehicle: Klucel (hydroxypropylcellulose) (HPC)
[5] = dose: 200.0 mg/kg/injection, schedule: Q01DX009 (ip), vehicle: Klucel (hydroxypropylcellulose) (HPC)
[6] = dose: 400.0 mg/kg/injection, schedule: Q01DX009 (ip), vehicle: Klucel (hydroxypropylcellulose) (HPC)
[7] = dose: 100.0 mg/kg/injection, schedule: Q04DX003 (ip), vehicle: Klucel (hydroxypropylcellulose) (HPC)
[8] = dose: 200.0 mg/kg/injection, schedule: Q04DX003 (ip), vehicle: Klucel (hydroxypropylcellulose) (HPC)
[9] = dose: 400.0 mg/kg/injection, schedule: Q04DX003 (ip), vehicle: Klucel (hydroxypropylcellulose) (HPC)
[10] = dose: 100.0 mg/kg/injection, schedule: Q04DX002 (ip), vehicle: saline with Tween-80
[11] = dose: 200.0 mg/kg/injection, schedule: Q04DX002 (ip), vehicle: saline with Tween-80
[12] = dose: 400.0 mg/kg/injection, schedule: Q04DX002 (ip), vehicle: saline with Tween-80

Measured: T/C

CC(=O)OCC1OC(N2C(=O)/C(=C/c3ccc(N(C)C)cc3)SC2=S)C(OC(C)=O)C(OC(C)=O)C1OC(C)=O (centres undefined)
inactive: dose: 25.0 mg/kg/injection, schedule: Q01DX005 (ip), vehicle: other 100 % of control | dose: 50.0 mg/kg/injection, schedule: Q01DX005 (ip), vehicle: other 98 % of control | dose: 100.0 mg/kg/injection, schedule: Q01DX005 (ip), vehicle: other 94 % of control | dose: 200.0 mg/kg/injection, schedule: Q01DX005 (ip), vehicle: other 95 % of control | dose: 400.0 mg/kg/injection, schedule: Q01DX005 (ip), vehicle: other 93 % of control

O=C(O)C1CCCCC1C(=O)Nc1ccc(Cl)cc1 (centres undefined)
inactive: [1] 88 % of control | dose: 100.0 mg/kg/injection, schedule: Q01DX009 (ip), vehicle: saline with Tween-80 87 % of control | [2] 96 % of control | dose: 200.0 mg/kg/injection, schedule: Q01DX009 (ip), vehicle: saline with Tween-80 98 % of control | [3] 97 % of control

CC(C)CCCC(C)C1CCC2C3CC=C4CC(OC(=O)Nc5ccc(S(=O)(=O)N(C)C)cc5)CCC4(C)C3CCC12C (centres undefined)
inactive: dose: 100.0 mg/kg/injection, schedule: Q01DX001 (sc), vehicle: steriod suspending solution 103 % of control | dose: 200.0 mg/kg/injection, schedule: Q01DX001 (sc), vehicle: steriod suspending solution 103 % of control | dose: 400.0 mg/kg/injection, schedule: Q01DX001 (sc), vehicle: steriod suspending solution 103 % of control

O=C(CNC(=O)Nc1ccc(Cl)c(Cl)c1)NNC(=O)Nc1ccc(Cl)c([N+](=O)[O-])c1
inactive: [4] 97 % of control | [5] 97 % of control | [6] 93 % of control

COc1ccc(Cl)cc1NC(=O)OCCCc1ccccc1
inactive: dose: 100.0 mg/kg/injection, schedule: Q01DX009 (ip), vehicle: gum acacia 108 % of control | dose: 200.0 mg/kg/injection, schedule: Q01DX009 (ip), vehicle: gum acacia 98 % of control | dose: 400.0 mg/kg/injection, schedule: Q01DX009 (ip), vehicle: gum acacia 109 % of control

Cc1ccc(C)c(NC(=O)N2CCCCC2C)c1 (centres undefined)
inactive: [4] 101 % of control | [7] 98 % of control | [5] 101 % of control | [8] 102 % of control | [6] 97 % of control | [9] 100 % of control

CC/C(=N\N=C(N)N)c1ccc(NC(=S)Nc2ccccc2)cc1
inactive: dose: 20.0 mg/kg/injection, schedule: Q01DX009 (ip), vehicle: saline 101 % of control | dose: 40.0 mg/kg/injection, schedule: Q01DX009 (ip), vehicle: saline 101 % of control | dose: 80.0 mg/kg/injection, schedule: Q01DX009 (ip), vehicle: saline 107 % of control

CCCCCCCCCCCCCCCCCCOC(=O)Cc1ccc(N(CCCl)CCCl)cc1
inactive: [4] 105 % of control | [7] 100 % of control | [5] 110 % of control | [8] 109 % of control | [6] 115 % of control | [9] 105 % of control

O=S1(=O)N=C(Sc2ccccc2)c2ccccc21
inactive: [10] 102 % of control | [11] 98 % of control | [12] 98 % of control

Nc1nc(Cl)c(C=O)c(Cl)n1
inactive: dose: 25.0 mg/kg/injection, schedule: Q01DX001 (ip), vehicle: carboxymethylcellulose (CMC) 97 % of control | dose: 50.0 mg/kg/injection, schedule: Q01DX001 (ip), vehicle: carboxymethylcellulose (CMC) 97 % of control | dose: 100.0 mg/kg/injection, schedule: Q01DX001 (ip), vehicle: carboxymethylcellulose (CMC) 94 % of control | dose: 200.0 mg/kg/injection, schedule: Q01DX001 (ip), vehicle: carboxymethylcellulose (CMC) 103 % of control

CN(N=O)C(=O)NCCc1ccccc1
inactive: dose: 6.25 mg/kg/injection, schedule: Q01DX Z (ip), vehicle: carboxymethylcellulose (CMC) 101 % of control | dose: 12.5 mg/kg/injection, schedule: Q01DX Z (ip), vehicle: carboxymethylcellulose (CMC) 112 % of control | dose: 25.0 mg/kg/injection, schedule: Q01DX Z (ip), vehicle: carboxymethylcellulose (CMC) 93 % of control | dose: 50.0 mg/kg/injection, schedule: Q01DX Z (ip), vehicle: carboxymethylcellulose (CMC) 98 % of control | dose: 100.0 mg/kg/injection, schedule: Q01DX Z (ip), vehicle: carboxymethylcellulose (CMC) 109 % of control | dose: 200.0 mg/kg/injection, schedule: Q01DX Z (ip), vehicle: carboxymethylcellulose (CMC) 98 % of control | dose: 400.0 mg/kg/injection, schedule: Q01DX Z (ip), vehicle: carboxymethylcellulose (CMC) 108 % of control

COc1cc(C)c2cc(C)cc(C)c2n1
inactive: dose: 100.0 mg/kg/injection, schedule: Q01DX001 (ip), vehicle: other 95 % of control | dose: 200.0 mg/kg/injection, schedule: Q01DX001 (ip), vehicle: other 101 % of control | dose: 400.0 mg/kg/injection, schedule: Q01DX001 (ip), vehicle: other 93 % of control

CCCCCCC(O)C[N+](=O)[O-] (centres undefined)
inactive: dose: 12.5 mg/kg/injection, schedule: Q01DX009 (ip), vehicle: saline with Tween-80 100 % of control | dose: 25.0 mg/kg/injection, schedule: Q01DX009 (ip), vehicle: saline with Tween-80 98 % of control | [1] 93 % of control | [2] 107 % of control | [3] 86 % of control

O=S(=O)(O)Cc1c(O)ccc2ccccc12
inactive: dose: 25.0 mg/kg/injection, schedule: Q01DX009 (ip), vehicle: Klucel (hydroxypropylcellulose) (HPC) 96 % of control | dose: 50.0 mg/kg/injection, schedule: Q01DX009 (ip), vehicle: Klucel (hydroxypropylcellulose) (HPC) 104 % of control | [4] 96 % of control | [10] 100 % of control | [11] 100 % of control | [12] 103 % of control

O=C(CCCC(=O)N/N=C/c1ccc2c(c1)OCO2)N/N=C\c1ccc2c(c1)OCO2
inactive: dose: 50.0 mg/kg/injection, schedule: Q01DX001 (ip), vehicle: saline 103 % of control | dose: 100.0 mg/kg/injection, schedule: Q01DX001 (ip), vehicle: saline 103 % of control | dose: 200.0 mg/kg/injection, schedule: Q01DX001 (ip), vehicle: saline 106 % of control | dose: 400.0 mg/kg/injection, schedule: Q01DX001 (ip), vehicle: saline 100 % of control

O=C(O)c1ccccc1C(=O)c1ccccc1
inactive: dose: 100.0 mg/kg/injection, schedule: Q01DX001 (ip), vehicle: Klucel (hydroxypropylcellulose) (HPC) 97 % of control | dose: 200.0 mg/kg/injection, schedule: Q01DX001 (ip), vehicle: Klucel (hydroxypropylcellulose) (HPC) 97 % of control | dose: 400.0 mg/kg/injection, schedule: Q01DX001 (ip), vehicle: Klucel (hydroxypropylcellulose) (HPC) 95 % of control

C=CCN(CC=C)P(=O)(OCC)OCC
inactive: dose: 12.5 mg/kg/injection, schedule: Q04DX003 (ip), vehicle: saline 105 % of control | dose: 25.0 mg/kg/injection, schedule: Q01DX009 (ip), vehicle: saline 97 % of control and 100 % of control | dose: 25.0 mg/kg/injection, schedule: Q04DX003 (ip), vehicle: saline 112 % of control | dose: 50.0 mg/kg/injection, schedule: Q01DX009 (ip), vehicle: saline 98 % of control and 105 % of control | dose: 50.0 mg/kg/injection, schedule: Q04DX003 (ip), vehicle: saline 108 % of control | dose: 100.0 mg/kg/injection, schedule: Q01DX009 (ip), vehicle: saline 104 % of control and 91 % of control | dose: 100.0 mg/kg/injection, schedule: Q04DX003 (ip), vehicle: saline 105 % of control | dose: 200.0 mg/kg/injection, schedule: Q01DX009 (ip), vehicle: saline 97 % of control and 92 % of control | dose: 200.0 mg/kg/injection, schedule: Q04DX003 (ip), vehicle: saline 94 % of control

COC(=O)CCC(=O)NCC(=O)OCc1ccccc1
inactive: dose: 100.0 mg/kg/injection, schedule: Q01DX001 (ip), vehicle: water 105 % of control | dose: 100.0 mg/kg/injection, schedule: Q04DX003 (ip), vehicle: water 100 % of control | dose: 200.0 mg/kg/injection, schedule: Q01DX001 (ip), vehicle: water 107 % of control | dose: 200.0 mg/kg/injection, schedule: Q04DX003 (ip), vehicle: water 96 % of control | dose: 400.0 mg/kg/injection, schedule: Q01DX001 (ip), vehicle: water 105 % of control | dose: 400.0 mg/kg/injection, schedule: Q04DX003 (ip), vehicle: water 90 % of control
